Results: ChEMBL document CHEMBL4130462, “Natural isoflavone biochanin A as a template for the design of new and potent 3-phenylquinolone efflux inhibitors against Mycobacterium avium” (Eur J Med Chem, 2017)
In brackets after ≈: the same amount, converted by molar mass.

Tests used:
Mycobacterium avium [1] = assay: Antimycobacterial activity against Mycobacterium avium ATCC 25291 assessed as reduction in bacterial viability incubated for 3 days by MTT assay; format: organism-based; conditions: mycobacterium avium subsp. avium atcc 25291, 72 h
Mycobacterium avium [2] = assay: Antimycobacterial activity against Mycobacterium avium isolate MAV3 assessed as reduction in bacterial viability incubated for 3 days by MTT assay; format: organism-based; conditions: 72 h
[3] = Cytotoxicity in human monocyte-derived macrophages assessed as reduction in cell viability incubated for 3 days by alamar blue dye based assay; set-up: species or system Macrophage cell line
[4] = Safety index, ratio of CC50 for test compound to CC50 for chlorpromazine for cytotoxicity in human monocyte-derived macrophages; format: cell-based, Macrophage cell line
[5] = Safety index, ratio of MTC for test compound to MTC for chlorpromazine for cytotoxicity in human monocyte-derived macrophages; format: cell-based, Macrophage cell line
Mycobacterium avium [6] = conditions: 72 h
Description: Antimycobacterial activity against Mycobacterium avium 104 assessed as reduction in bacterial viability incubated for 3 days by MTT assay

Mycobacterium avium [7] = conditions: in vivo, 72 h
Description: Antimycobacterial activity against Mycobacterium avium 104 mc'2 3 assessed as reduction in bacterial viability incubated for 3 days by MTT assay

Mycobacterium avium [8] = conditions: in vivo, 72 h; remark: listed apart in the source
Description: Antimycobacterial activity against Mycobacterium avium 104 mc'2 4 assessed as reduction in bacterial viability incubated for 3 days by MTT assay

Mycobacterium avium [9] = conditions: 104
Description: Inhibition of multidrug resistance efflux pump in Mycobacterium avium 104 assessed as potentiation of clarithromycin -induced antibacterial activity by measuring clarithromycin MIC at 1/2 MIC incubated for 3 days by MTT assay

Mycobacterium avium [10] = conditions: 104; remark: listed apart in the source
Description: Inhibition of multidrug resistance efflux pump in Mycobacterium avium 104 assessed as potentiation of clarithromycin -induced antibacterial activity by measuring clarithromycin MIC at 1/4 MIC incubated for 3 days by MTT assay

Mycobacterium avium [11] = conditions: 104 mc'2 3
Mycobacterium avium [12] = conditions: 104 mc'2 4
Mycobacterium avium [13] = conditions: isolate MAV1
Mycobacterium avium [14] = conditions: isolate MAV1; remark: listed apart in the source
Mycobacterium avium [15] = conditions: isolate MAV2
Description: Inhibition of multidrug resistance efflux pump in Mycobacterium avium isolate MAV2 assessed as potentiation of clarithromycin -induced antibacterial activity by measuring clarithromycin MIC at 1/2 MIC incubated for 3 days by MTT assay (Rvb = >1024 ug/ml)

Mycobacterium avium [16] = conditions: isolate MAV2; remark: listed apart in the source
Description: Inhibition of multidrug resistance efflux pump in Mycobacterium avium isolate MAV2 assessed as potentiation of clarithromycin -induced antibacterial activity by measuring clarithromycin MIC at 1/4 MIC incubated for 3 days by MTT assay (Rvb = >1024 ug/ml)

Mycobacterium avium [17] = conditions: isolate MAV3
Mycobacterium avium [18] = conditions: isolate MAV3; remark: listed apart in the source
Mycobacterium avium [19] = conditions: isolate MAV4
Description: Inhibition of multidrug resistance efflux pump in Mycobacterium avium isolate MAV4 assessed as potentiation of clarithromycin -induced antibacterial activity by measuring clarithromycin MIC at 1/2 MIC incubated for 3 days by MTT assay

Mycobacterium avium [20] = conditions: isolate MAV4; remark: listed apart in the source
Description: Inhibition of multidrug resistance efflux pump in Mycobacterium avium isolate MAV4 assessed as potentiation of clarithromycin -induced antibacterial activity by measuring clarithromycin MIC at 1/4 MIC incubated for 3 days by MTT assay

[21] = tested on: Mycobacterium avium subsp. avium ATCC 25291
Description: Inhibition of multidrug resistance efflux pump in Mycobacterium avium ATCC 25291 assessed as potentiation of clarithromycin -induced antibacterial activity by measuring clarithromycin MIC at 1/2 MIC incubated for 3 days by MTT assay

[22] = tested on: Mycobacterium avium subsp. avium ATCC 25291; remark: listed apart in the source
Description: Inhibition of multidrug resistance efflux pump in Mycobacterium avium ATCC 25291 assessed as potentiation of clarithromycin -induced antibacterial activity by measuring clarithromycin MIC at 1/4 MIC incubated for 3 days by MTT assay

Mycobacterium avium [23] = conditions: 104; remark: listed apart in the source
Mycobacterium avium [24] = conditions: 104 mc'2 3; remark: listed apart in the source
Mycobacterium avium [25] = conditions: 104 mc'2 4; remark: listed apart in the source
Mycobacterium avium [26] = conditions: isolate MAV1; remark: listed apart in the source
Mycobacterium avium [27] = conditions: isolate MAV3; remark: listed apart in the source
Mycobacterium avium [28] = conditions: isolate MAV3; remark: listed apart in the source
Mycobacterium avium [29] = conditions: isolate MAV4; remark: listed apart in the source
Mycobacterium avium [30] = conditions: isolate MAV4; remark: listed apart in the source
[31] = tested on: Mycobacterium avium subsp. avium ATCC 25291; remark: listed apart in the source
[32] = tested on: Mycobacterium avium subsp. avium ATCC 25291; remark: listed apart in the source
Mycobacterium avium [33] = conditions: 104; remark: listed apart in the source
Mycobacterium avium [34] = conditions: 104 mc'2 3; remark: listed apart in the source
Mycobacterium avium [35] = conditions: 104 mc'2 4; remark: listed apart in the source
Mycobacterium avium [36] = conditions: 104 mc'2 4; remark: listed apart in the source
Mycobacterium avium [37] = conditions: isolate MAV1; remark: listed apart in the source
Mycobacterium avium [38] = conditions: isolate MAV2; remark: listed apart in the source
Mycobacterium avium [39] = conditions: isolate MAV2; remark: listed apart in the source
Mycobacterium avium [40] = conditions: isolate MAV3; remark: listed apart in the source
Mycobacterium avium [41] = conditions: isolate MAV3; remark: listed apart in the source
[42] = tested on: Mycobacterium avium subsp. avium ATCC 25291; remark: listed apart in the source
Mycobacterium avium [43] = conditions: 104 mc'2 3; remark: listed apart in the source
Mycobacterium avium [44] = conditions: 104 mc'2 3; remark: listed apart in the source
Mycobacterium avium [45] = conditions: 104 mc'2 4; remark: listed apart in the source
Mycobacterium avium [46] = conditions: isolate MAV2; remark: listed apart in the source
Mycobacterium avium [47] = conditions: isolate MAV4; remark: listed apart in the source
[48] = tested on: Mycobacterium avium subsp. avium ATCC 25291; remark: listed apart in the source
[49] = tested on: Mycobacterium avium subsp. avium ATCC 25291; remark: listed apart in the source
Mycobacterium avium [50] = conditions: 104; remark: listed apart in the source
Mycobacterium avium [51] = conditions: 104; remark: listed apart in the source
Mycobacterium avium [52] = conditions: 104 mc'2 4; remark: listed apart in the source
Mycobacterium avium [53] = conditions: 104 mc'2 4; remark: listed apart in the source
Mycobacterium avium [54] = conditions: isolate MAV1; remark: listed apart in the source
Description: Inhibition of multidrug resistance efflux pump in Mycobacterium avium isolate MAV1 assessed as potentiation of ofloxacin-induced antibacterial activity by measuring ofloxacin MIC at 1/4 MIC incubated for 3 days by MTT assay (Rvb = 4 ug/ml)

Mycobacterium avium [55] = conditions: isolate MAV2; remark: listed apart in the source
Description: Inhibition of multidrug resistance efflux pump in Mycobacterium avium isolate MAV2 assessed as potentiation of ofloxacin-induced antibacterial activity by measuring ofloxacin MIC at 1/4 MIC incubated for 3 days by MTT assay

Mycobacterium avium [56] = conditions: isolate MAV3; remark: listed apart in the source
Mycobacterium avium [57] = conditions: isolate MAV3; remark: listed apart in the source
Mycobacterium avium [58] = conditions: isolate MAV4; remark: listed apart in the source
[59] = tested on: Mycobacterium avium subsp. avium ATCC 25291; remark: listed apart in the source
Mycobacterium avium [60] = conditions: 104; remark: listed apart in the source
Mycobacterium avium [61] = conditions: 104; remark: listed apart in the source
Mycobacterium avium [62] = conditions: 104 mc'2 3; remark: listed apart in the source
Mycobacterium avium [63] = conditions: 104 mc'2 4; remark: listed apart in the source
Mycobacterium avium [64] = conditions: 104 mc'2 4; remark: listed apart in the source
Mycobacterium avium [65] = conditions: isolate MAV1; remark: listed apart in the source
Mycobacterium avium [66] = conditions: isolate MAV1; remark: listed apart in the source
Mycobacterium avium [67] = conditions: isolate MAV2; remark: listed apart in the source
Mycobacterium avium [68] = conditions: isolate MAV3; remark: listed apart in the source

CCCOc1ccc(-c2cn(CCN3CCCCC3)c3ccccc3c2=O)cc1
MIC (Mycobacterium avium [1]): 256 µg/mL (≈ 656 µM)
MIC (Mycobacterium avium [2]): 128 µg/mL (≈ 328 µM)
CC50 at 72 h ([3]; human monocyte-derived macrophages): 82.2 µM
MTC ([3]; macrophage cell line, 72 h): 40 µM
selectivity ratio [4]: 2 to 4
selectivity ratio [5]: 2 to 4
MIC (Mycobacterium avium [6]): > 256 µg/mL
MIC (Mycobacterium avium [7]): 256 µg/mL (≈ 656 µM)
MIC (Mycobacterium avium [8]): 256 µg/mL (≈ 656 µM)
MIC (Mycobacterium avium [9]): < 0.125 µg/mL
MIC (Mycobacterium avium [10]): < 0.125 µg/mL
MIC (Mycobacterium avium [11]): < 4 µg/mL
MIC (Mycobacterium avium [12]): 128 µg/mL (≈ 328 µM)
MIC (Mycobacterium avium [13]): < 0.125 µg/mL
MIC (Mycobacterium avium [14]): 0.25 µg/mL (≈ 0.64 µM)
MIC (Mycobacterium avium [15]): 256 µg/mL (≈ 656 µM)
MIC (Mycobacterium avium [16]): 512 µg/mL (≈ 1310 µM)
MIC (Mycobacterium avium [17]): 0.5 µg/mL (≈ 1.28 µM)
MIC (Mycobacterium avium [18]): 2 µg/mL (≈ 5.12 µM)
MIC (Mycobacterium avium [19]): < 0.0625 µg/mL
MIC (Mycobacterium avium [20]): 1 µg/mL (≈ 2.56 µM)
MIC [21]: < 0.0625 µg/mL
MIC [22]: 4 µg/mL (≈ 10.2 µM)
MIC (Mycobacterium avium [23]): < 0.125 µg/mL
MIC (Mycobacterium avium [24]): < 4 µg/mL
MIC (Mycobacterium avium [25]): < 4 µg/mL
MIC (Mycobacterium avium [26]): < 4 µg/mL
MIC (Mycobacterium avium [27]): < 4 µg/mL
MIC (Mycobacterium avium [28]): 64 µg/mL (≈ 164 µM)
MIC (Mycobacterium avium [29]): < 4 µg/mL
MIC (Mycobacterium avium [30]): < 4 µg/mL
MIC [31]: < 1 µg/mL
MIC [32]: 32 µg/mL (≈ 81.9 µM)
MIC (Mycobacterium avium [33]): < 0.125 µg/mL
MIC (Mycobacterium avium [34]): 512 µg/mL (≈ 1310 µM)
MIC (Mycobacterium avium [35]): < 4 µg/mL
MIC (Mycobacterium avium [36]): 512 µg/mL (≈ 1310 µM)
MIC (Mycobacterium avium [37]): < 4 µg/mL
MIC (Mycobacterium avium [38]): 256 µg/mL (≈ 656 µM)
MIC (Mycobacterium avium [39]): 512 µg/mL (≈ 1310 µM)
MIC (Mycobacterium avium [40]): 8 µg/mL (≈ 20.5 µM)
MIC (Mycobacterium avium [41]): 32 µg/mL (≈ 81.9 µM)
MIC [42]: 8 µg/mL (≈ 20.5 µM)
MIC (Mycobacterium avium [43]): < 0.125 µg/mL
MIC (Mycobacterium avium [44]): 2 µg/mL (≈ 5.12 µM)
MIC (Mycobacterium avium [45]): < 0.125 µg/mL
MIC (Mycobacterium avium [46]): 1 µg/mL (≈ 2.56 µM)
MIC (Mycobacterium avium [47]): < 0.25 µg/mL
MIC [48]: < 0.25 µg/mL
MIC [49]: 8 µg/mL (≈ 20.5 µM)
MIC (Mycobacterium avium [50]): < 0.125 µg/mL
MIC (Mycobacterium avium [51]): < 0.125 µg/mL
MIC (Mycobacterium avium [52]): < 0.125 µg/mL
MIC (Mycobacterium avium [53]): 4 µg/mL (≈ 10.2 µM)
MIC (Mycobacterium avium [54]): 1 µg/mL (≈ 2.56 µM)
MIC (Mycobacterium avium [55]): 4 µg/mL (≈ 10.2 µM)
MIC (Mycobacterium avium [56]): 4 µg/mL (≈ 10.2 µM)
MIC (Mycobacterium avium [57]): 16 µg/mL (≈ 41 µM)
MIC (Mycobacterium avium [58]): 4 µg/mL (≈ 10.2 µM)
MIC [59]: < 0.5 µg/mL
MIC (Mycobacterium avium [60]): < 0.195 µg/mL
MIC (Mycobacterium avium [61]): < 0.195 µg/mL
MIC (Mycobacterium avium [62]): < 0.195 µg/mL
MIC (Mycobacterium avium [63]): < 0.195 µg/mL
MIC (Mycobacterium avium [64]): 3.12 µg/mL (≈ 8 µM)
MIC (Mycobacterium avium [65]): < 0.195 µg/mL
MIC (Mycobacterium avium [66]): 1.56 µg/mL (≈ 3.99 µM)
MIC (Mycobacterium avium [67]): 6.25 µg/mL (≈ 16 µM)
MIC (Mycobacterium avium [68]): 3.12 µg/mL (≈ 8 µM)
